Read-outs that look alike come from different tables or passages of the source.
Experiments:
SARS-CoV-2 3CLpro = SARS-CoV-2 3CLpro (Severe acute respiratory syndrome coronavirus 2, UniProt P0DTD1); assay: biochemical
HCoV-229E 3CLpro = HCoV-229E 3CLpro (Human coronavirus 229E, UniProt P0C6X1); assay: HCoV-229E 3CLpro inhibition assay (FRET); assay type: biochemical
MERS-CoV 3CLpro = MERS-CoV 3CLpro (Middle East respiratory syndrome-related coronavirus, UniProt K9N7C7); assay: biochemical
SARS-CoV 3CLpro = SARS-CoV 3CLpro (Severe acute respiratory syndrome coronavirus, UniProt P0C6X7); assay: biochemical

HCoV-229E 3CLpro, sequence (P0C6X1 2966-3267): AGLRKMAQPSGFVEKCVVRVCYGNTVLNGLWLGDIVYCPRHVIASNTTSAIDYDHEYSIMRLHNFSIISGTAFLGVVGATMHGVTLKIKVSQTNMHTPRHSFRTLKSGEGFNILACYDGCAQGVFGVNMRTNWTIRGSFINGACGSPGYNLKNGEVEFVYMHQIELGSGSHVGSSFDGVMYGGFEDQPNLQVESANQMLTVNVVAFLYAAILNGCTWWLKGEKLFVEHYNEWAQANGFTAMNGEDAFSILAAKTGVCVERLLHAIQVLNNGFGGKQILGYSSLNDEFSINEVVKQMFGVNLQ
MERS-CoV 3CLpro, sequence (K9N7C7 3248-3553): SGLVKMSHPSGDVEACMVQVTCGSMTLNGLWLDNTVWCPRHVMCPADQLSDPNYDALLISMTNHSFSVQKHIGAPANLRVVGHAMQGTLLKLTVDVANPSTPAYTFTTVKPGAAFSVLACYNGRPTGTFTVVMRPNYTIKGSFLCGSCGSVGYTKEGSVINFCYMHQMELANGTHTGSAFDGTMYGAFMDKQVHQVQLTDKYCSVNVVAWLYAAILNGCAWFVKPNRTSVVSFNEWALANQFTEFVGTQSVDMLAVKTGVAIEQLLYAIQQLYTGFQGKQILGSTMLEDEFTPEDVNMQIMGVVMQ

| SMILES | IC50 (SARS-CoV-2 3CLpro) | IC50 (HCoV-229E 3CLpro) | IC50 (MERS-CoV 3CLpro) | IC50 (SARS-CoV 3CLpro) | IC50 (SARS-CoV-2 3CLpro; read-out: IC50 in SARS-CoV-2 3CLpro assay) |
| --- | --- | --- | --- | --- | --- |
| CCC(CC)[C@H](NC(=O)C1CC1)C(=O)N1C[C@H]2[C@@H]([C@H]1C(=O)NN(C[C@@H]1CCNC1=O)C(=O)[C@H](F)Cl)C2(C)C [Example 129, N-[(1S)-1-[(1R,2S,5S)-2-[[[(2R)-2-chloro-2-fluoro-acetyl]-[[(3S)-2-oxopyrrolidin-3-yl]methyl]amino]carbamoyl]-6,6-dimethyl-3-azabicyclo[3.1.0]hexane-3-carbonyl]-2-ethyl-butyl]cyclopropanecarboxamide] | 0.011 µM | 0.029 µM | 0.104 µM | 0.016 µM |  |
| CC[C@H](C)[C@H](NC(=O)C1CC1(F)F)C(=O)N1C[C@H]2[C@@H]([C@H]1C(=O)NN(C[C@@H]1CCNC1=O)C(=O)[C@@H](F)Cl)C2(C)C (mixture of isomers) [Example 111, Rac-2,2-difluoro-N-[(1S,2S)-2-methyl-1-[(1R,2S,5S)-6,6-dimethyl-2-[[[(2S)-2-chloro-2-fluoro-acetyl]-[[(3S)-2-oxopyrrolidin-3-yl]methyl]amino]carbamoyl]-3-azabicyclo[3.1.0]hexane-3-carbonyl]butyl]cyclopropanecarboxamide] | 0.016 µM | 0.037 µM | 0.096 µM | 0.028 µM |  |
| CC(C)(C)[C@H](NC(=O)C(F)(F)C(F)(F)F)C(=O)N1C[C@@H]2CCC[C@@H]2[C@H]1C(=O)NN(C[C@@H]1CCNC1=O)C(=O)[C@H](F)Cl [Example 71, N-[(1S)-1-[(3S,3aS,6aR)-3-[[[(2R)-2-chloro-2-fluoro-acetyl]-[[(3S)-2-oxopyrrolidin-3-yl]methyl]amino]carbamoyl]-3,3a,4,5,6,6a-hexahydro-1H-cyclopenta[c]pyrrole-2-carbonyl]-2,2-dimethyl-propyl]-2,2,3,3,3-pentafluoro-propanamide] | 0.007 µM | 0.019 µM | 0.041 µM | 0.01 µM |  |
| CCC(CC)[C@H](NC(=O)C1CC1)C(=O)N1C[C@H]2[C@@H]([C@H]1C(=O)NN(C[C@@H]1CCCNC1=O)C(=O)[C@H](F)Cl)C2(C)C [Example 172, N-[(1S)-1-[(1R,2S,5S)-2-[[[(2R)-2-chloro-2-fluoro-acetyl]-[[(3S)-2-oxo-3-piperidyl]methyl]amino]carbamoyl]-6,6-dimethyl-3-azabicyclo[3.1.0]hexane-3-carbonyl]-2-ethyl-butyl]cyclopropanecarboxamide] | 0.017 µM | 0.071 µM | 0.187 µM | 0.026 µM |  |
| CC(C)(C)[C@H](NC(=O)[C@H]1CC1(F)F)C(=O)N1C[C@@H]2CCC[C@@H]2[C@H]1C(=O)NN(C[C@@H]1CCNC1=O)C(=O)[C@@H](F)Cl [Example 104, (1R)—N-[(1S)-1-[(3S,3aS,6aR)-3-[[[(2S)-2-chloro-2-fluoro-acetyl]-[[(3S)-2-oxopyrrolidin-3-yl]methyl]amino]carbamoyl]-3,3a,4,5,6,6a-hexahydro-1H-cyclopenta[c]pyrrole-2-carbonyl]-2,2-dimethyl-propyl]-2,2-difluoro-cyclopropanecarboxamide] | 0.012 µM | 0.055 µM | 0.128 µM | 0.02 µM |  |
| CC(C)(C)[C@H](NC(=O)C(F)(F)F)C(=O)N1C[C@@H]2CCC[C@@H]2[C@H]1C(=O)NN(C[C@@H]1CCNC1=O)C(=O)[C@@H](F)Cl [Example 102, N-[(1S)-1-[(3S,3aS,6aR)-3-[[[(2S)-2-chloro-2-fluoro-acetyl]-[[(3S)-2-oxopyrrolidin-3-yl]methyl]amino]carbamoyl]-3,3a,4,5,6,6a-hexahydro-1H-cyclopenta[c]pyrrole-2-carbonyl]-2,2-dimethyl-propyl]-2,2,2-trifluoro-acetamide] | 0.012 µM | 0.112 µM | 0.207 µM | 0.016 µM |  |
| CC[C@H](C)[C@H](NC(=O)C(F)F)C(=O)N1C[C@H]2[C@@H]([C@H]1C(=O)NN(C[C@@H]1CCCNC1=O)C(=O)[C@H](F)Cl)C2(C)C [Example 176, N-[(1S,2S)-1-[(1R,2S,5S)-2-[[[(2R)-2-chloro-2-fluoro-acetyl]-[[(3S)-2-oxo-3-piperidyl]methyl]amino]carbamoyl]-6,6-dimethyl-3-azabicyclo[3.1.0]hexane-3-carbonyl]-2-methyl-butyl]-2,2-difluoro-acetamide] | 0.011 µM | 0.028 µM | 0.096 µM | 0.016 µM |  |
| CC[C@@H](C)[C@H](NC(=O)C(C)(F)F)C(=O)N1C[C@@H]2CCC[C@@H]2[C@H]1C(=O)NN(C[C@@H]1CCNC1=O)C(=O)[C@H](F)Cl [Example 76, N-[(1S,2R)-1-[(3S,3aS,6aR)-3-[[[(2R)-2-chloro-2-fluoro-acetyl]-[[(3S)-2-oxopyrrolidin-3-yl]methyl]amino]carbamoyl]-3,3a,4,5,6,6a-hexahydro-1H-cyclopenta[c]pyrrole-2-carbonyl]-2-methyl-butyl]-2,2-difluoro-propanamide] | 0.008 µM | 0.088 µM | 0.194 µM | 0.015 µM |  |
| CC[C@H](C)[C@H](NC(=O)C(C)(F)F)C(=O)N1C[C@H]2[C@@H]([C@H]1C(=O)NN(C[C@@H]1CCNC1=O)C(=O)[C@H](F)Cl)C2(C)C [Example 55, N-[(1S,2S)-1-[(1R,2S,5S)-2-[[[(2R)-2-chloro-2-fluoro-acetyl]-[[(3S)-2-oxopyrrolidin-3-yl]methyl]amino]carbamoyl]-6,6-dimethyl-3-azabicyclo[3.1.0]hexane-3-carbonyl]-2-methyl-butyl]-2,2-difluoro-propanamide] | 0.008 µM | 0.021 µM | 0.056 µM | 0.014 µM |  |
| CC(C)(C)C[C@H](NC(=O)C1(F)CC1)C(=O)N1C[C@H]2[C@@H]([C@H]1C(=O)NN(C[C@@H]1CCNC1=O)C(=O)[C@H](F)Cl)C2(C)C [Example 162, N-[(1S)-1-[(1R,2S,5S)-2-[[[(2R)-2-chloro-2-fluoro-acetyl]-[[(3S)-2-oxopyrrolidin-3-yl]methyl]amino]carbamoyl]-6,6-dimethyl-3-azabicyclo[3.1.0]hexane-3-carbonyl]-3,3-dimethyl-butyl]-1-fluoro-cyclopropanecarboxamide] | 0.012 µM | 0.033 µM | 0.094 µM | 0.015 µM |  |
| CC[C@@H](C)[C@H](NC(=O)C(F)(F)F)C(=O)N1C[C@H]2[C@@H]([C@H]1C(=O)NN(C[C@@H]1CCNC1=O)C(=O)[C@H](F)Cl)C2(C)C [Example 64, N-[(1S,2R)-1-[(1R,2S,5S)-2-[[[(2R)-2-chloro-2-fluoro-acetyl]-[[(3S)-2-oxopyrrolidin-3-yl]methyl]amino]carbamoyl]-6,6-dimethyl-3-azabicyclo[3.1.0]hexane-3-carbonyl]-2-methyl-butyl]-2,2,2-trifluoro-acetamide] | 0.01 µM | 0.02 µM | 0.071 µM | 0.012 µM |  |
| CC(C)(C)[C@H](NC(=O)C(F)(F)F)C(=O)N1C[C@@H]2CCC[C@@H]2[C@H]1C(=O)NN(C[C@@H]1CCNC1=O)C(=O)[C@H](F)Cl [Example 4, N-[(1S)-1-[(3S,3aS,6aR)-3-[[[(2R)-2-chloro-2-fluoro-acetyl]-[[(3S)-2-oxopyrrolidin-3-yl]methyl]amino]carbamoyl]-3,3a,4,5,6,6a-hexahydro-1H-cyclopenta[c]pyrrole-2-carbonyl]-2,2-dimethyl-propyl]-2,2,2-trifluoro-acetamide] |  | 0.039 µM | 0.07 µM | 0.016 µM | 0.006 µM |
| CCCC(=O)N[C@H](C(=O)N1C[C@@H]2CCC[C@@H]2[C@H]1C(=O)NN(C[C@@H]1CCNC1=O)C(=O)[C@H](F)Cl)[C@@H](C)CC [Example 46, N-[(1S,2S)-1-[(3S,3aS,6aR)-3-[[[(2R)-2-chloro-2-fluoro-acetyl]-[[(3S)-2-oxopyrrolidin-3-yl]methyl]amino]carbamoyl]-3,3a,4,5,6,6a-hexahydro-1H-cyclopenta[c]pyrrole-2-carbonyl]-2-methyl-butyl]butanamide] | 0.008 µM | 0.049 µM | 0.152 µM | 0.029 µM |  |
| CC(C)(C)[C@H](NC(=O)[C@@H]1CC1(F)F)C(=O)N1C[C@@H]2CCC[C@@H]2[C@H]1C(=O)NN(C[C@@H]1CCNC1=O)C(=O)[C@@H](F)Cl [Example 101, (1S)—N-[(1S)-1-[(3S,3aS,6aR)-3-[[[(2S)-2-chloro-2-fluoro-acetyl]-[[(3S)-2-oxopyrrolidin-3-yl]methyl]amino]carbamoyl]-3,3a,4,5,6,6a-hexahydro-1H-cyclopenta[c]pyrrole-2-carbonyl]-2,2-dimethyl-propyl]-2,2-difluoro-cyclopropanecarboxamide] | 0.009 µM | 0.04 µM | 0.094 µM | 0.013 µM |  |
| CCC(CC)[C@H](NC(=O)C1CC(F)(F)C1)C(=O)N1C[C@@H]2CCC[C@@H]2[C@H]1C(=O)NN(C[C@@H]1CCNC1=O)C(=O)[C@H](F)Cl [Example 134, N-[(1S)-1-[(3S,3aS,6aR)-3-[[[(2R)-2-chloro-2-fluoro-acetyl]-[[(3S)-2-oxopyrrolidin-3-yl]methyl]amino]carbamoyl]-3,3a,4,5,6,6a-hexahydro-1H-cyclopenta[c]pyrrole-2-carbonyl]-2-ethyl-butyl]-3,3-difluoro-cyclobutanecarboxamide] | 0.01 µM | 0.036 µM | 0.097 µM | 0.014 µM |  |
| CC(C)(C)[C@H](NC(=O)C1CC(F)(F)C1)C(=O)N1C[C@H]2[C@@H]([C@H]1C(=O)NN(C[C@@H]1CCNC1=O)C(=O)[C@H](F)Cl)C2(C)C [Example 90, N-[(1S)-1-[(1R,2S,5S)-2-[[[(2R)-2-chloro-2-fluoro-acetyl]-[[(3S)-2-oxopyrrolidin-3-yl]methyl]amino]carbamoyl]-6,6-dimethyl-3-azabicyclo[3.1.0]hexane-3-carbonyl]-2,2-dimethyl-propyl]-3,3-difluoro-cyclobutanecarboxamide] | 0.01 µM | 0.022 µM | 0.055 µM | 0.012 µM |  |
